We go through 1 substance from paper PMC11238337, “Crafting Stable Antibiotic Nanoparticles via Complex Coacervation of Colistin with Block Copolymers” (Biomacromolecules, 2024).

The target of one data set is T1, subtilisin (Bacillus licheniformis, UniProt P00780).
T1 construct: purchased Sigma Aldrich
The data set can be described thus: Enzymatic breakdown susceptibility, SAXS read-out. Type of data set: in vitro ADME. Particulars: 24 h at 37 °C.

Data set [1] deals with Bacillus subtilis (DSM10). The data set can be described thus: Disk diffusion assay (DDA), control strain. Particulars: 3.0 μg colistin per disk, 24 h at 37 °C; Gram-positive negative control. Type of data set: cell-based. As to the method:
(§1) In the DDA, the susceptibility of Escherichia coli (DSM613), Serratia indica (NCIMB 8869), Pseudomonas fluorescens (DSM20030), A. vinelandii (DSM2290), and Bacillus subtilis (DSM10) was tested. Sterile filter disks (VWR) were impregnated (using an automatic pipette) with 3.0 μg of colistin from either colistin sulfate or colistin-C3Ms (at f+ = 0.50) in a concentration above the CMC (at 1.0 mg/mL) and dried under sterile air. Bacterial plates were prepared by freshly pouring bacterial medium until it set. Second, a layer of LB medium, that was premixed with 10 μL of bacteria from overnight cultures, was added. Then, the disks were added, and the plates were incubated for 24 h at 37 °C. The sizes of the inhibition zones were measured and averaged. Experiments were performed in triplicate. With the agar broth dilution testing, it was possible to determine the MIC50 values. LB liquid media in test tubes containing equal amounts of E. coli culture (10 μL of bacteria from overnight cultures to 5 mL of media) was mixed with either colistin or colistin-C3Ms with equal colistin for a concentration between 0.0 and 50 μg/mL. The test tubes were incubated for 24 h at 37 °C and their turbidity was measured with a McFarland turbidimeter. The agar broth dilution experiments were done in duplicate. To determine the MIC50 values, curves were averaged and then fitted with a sigmoid function.

The subject of the next data set is E. coli. The data set can be described thus: Agar broth dilution testing for MIC50 (turbidity). It counts as cell-based, Escherichia coli. Particulars: LB liquid media, 0.0-50 μg/mL colistin, 24 h at 37 °C, McFarland turbidity, duplicate, sigmoid fit; all concentrations below the CMC. As to the method:
as §1
On the technique in general: Broth dilution looks for growth in wells or tubes with falling amounts of substance.

In another data set the target is T2, proteinase K (Parengyodontium album, UniProt P06873).
T2 construct: purchased Sigma Aldrich
The data set can be described thus: Enzymatic breakdown susceptibility, SAXS read-out. It counts as in vitro ADME. Particulars: 24 h at 37 °C.

The subject of data set [2] is Pseudomonas fluorescens (DSM20030). The data set can be described thus: Disk diffusion assay (DDA). Type of data set: cell-based. The note with it: 3.0 μg colistin per disk, 24 h at 37 °C. As to the method: as §1
A general note: In agar diffusion tests the substance spreads into inoculated agar from a disc or well.

Data set [3] relates to Escherichia coli (DSM613). The data set can be described thus: Disk diffusion assay (DDA). It counts as cell-based. Particulars: 3.0 μg colistin per disk, 24 h at 37 °C, triplicate, averaged. As to the method: as §1
Data set [4] has as its system Serratia indica (NCIMB 8869). The data set can be described thus: Disk diffusion assay (DDA). Type of data set: cell-based. The note with it: 3.0 μg colistin per disk, 24 h at 37 °C. As to the method: as §1
In another data set the test system is A. vinelandii (DSM2290). The data set can be described thus: Disk diffusion assay (DDA). Type of data set: cell-based. The note with it: 3.0 μg colistin per disk, 24 h at 37 °C. As to the method:
as §1

Data set [5] deals with Human embryonic kidney (HEK 293 cells). The data set can be described thus: Toxicity assay (LDH activity, caspase-3 level in medium). It counts as cell-based. As to the method: (§2) Human embryonic kidney (HEK 293 cells) (ATCC, CRL-1573) were cultured in Dulbecco’s modified Eagle medium (DMEM), low glucose (Sigma Aldrich) supplemented with 100 U/mL penicillin and 100 μg/mL streptomycin (15140-122; Gibco, Waltham), 1% GlutaMAX (35050; Gibco), and 20% fetal bovine serum (F9665; Sigma Aldrich). Mesenchymal stem cells (MSC, PT-2501; Lonza) were cultured in Mesenchymal Stem Cell Basel Medium (PT-3238; Lonza)) supplemented with MSCGM SingleQuots (PT-4105; Lonza). Human gingival keratinocytes (HGK) (PCS-200-014; ATCC) were cultured in Dermal Cell Basal Medium (PCS-200-030; ATCC) supplemented with Keratinocytes Growth Kit (PCS-200-040; ATCC). Human umbilical cord endothelial cells (HUVEC, 200p-05n; Cell Applications) were cultured in Endothelial Cell Growth Medium (211-500; Cell Applications). The cell types were seeded in 12-well culture-treated plates at a density of 4 × 10^4 cells/cm^2. Upon confluency (set at time point 0), the cells were exposed to cell-specific growth medium containing formulations with a concentration of 1.0 mg/mL total concentration (0.7 mg/mL colistin) of f+ = 0.50 C3Ms or equivalent concentrations of colistin, and polymer as a control. The medium was changed for both control cells and stimulated cells every two days, 24 h before the harvest of the medium to ensure the same window of accumulated cell-secreted factors in the media. Cytotoxicity assays on lactate dehydrogenase (LDH) activity and caspase-3 level were performed at 24, 48, and 72 h and executed in triplicate. LDH activity in the cell culture media was evaluated using a cytotoxicity detection kit (11644793001; Roche). In short, 50 μL of the collected supernatant was mixed with 50 μL of the reaction mixture and incubated in a dark room at room temperature for 30 min.

Data set [6] relates to Human gingival keratinocytes (HGK). The data set is described as above. It counts as cell-based. Particulars: 24 h; 0.7 mg/mL colistin. As to the method: as §2
The test system of data set [7] is Mesenchymal stem cells (MSC). Described as above. Type of data set: cell-based, human. Particulars: 24 h, 0.7 mg/mL colistin. As to the method: as §2, with “The medium was changed for both control cells and stimulated cells every two days, 24 h before the harvest of the medium to ensure the same window of accumulated cell-secreted factors in the media. Cytotoxicity assays on lactate dehydrogenase (LDH) activity and caspase-3 level were performed at 24, 48, and 72 h and executed in triplicate.” left out, “In short, 50 μL of the collected supernatant was mixed with 50 μL of the reaction mixture and incubated in a dark room at room temperature for 30 min.” left out

For another data set, the system named is trypsin. The data set can be described thus: Enzymatic breakdown susceptibility, SAXS read-out. Particulars: 24 h at 37 °C, enzyme:colistin ≈ 1:180.

One may read the MIC50 as an inhibitory concentration at the 50% level, which refers to growth in some studies and to a panel of isolates in others.

T1 sequence (P00780 106-379): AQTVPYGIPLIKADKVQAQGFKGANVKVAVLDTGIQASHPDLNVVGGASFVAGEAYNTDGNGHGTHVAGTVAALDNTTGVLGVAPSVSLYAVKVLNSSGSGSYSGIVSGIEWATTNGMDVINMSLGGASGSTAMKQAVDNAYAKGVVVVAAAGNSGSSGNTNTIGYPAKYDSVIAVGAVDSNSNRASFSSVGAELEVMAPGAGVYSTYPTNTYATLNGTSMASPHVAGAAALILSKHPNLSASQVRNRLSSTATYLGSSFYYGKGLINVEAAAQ
T2 sequence (P06873 106-384): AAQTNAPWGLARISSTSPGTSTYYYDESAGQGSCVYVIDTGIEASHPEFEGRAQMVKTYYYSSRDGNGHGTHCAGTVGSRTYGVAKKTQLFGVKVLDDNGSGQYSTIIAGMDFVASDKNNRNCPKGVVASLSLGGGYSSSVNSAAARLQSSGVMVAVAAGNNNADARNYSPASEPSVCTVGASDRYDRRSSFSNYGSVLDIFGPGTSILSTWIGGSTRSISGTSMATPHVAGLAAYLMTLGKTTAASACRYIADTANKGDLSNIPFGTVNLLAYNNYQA
Experimental for proteinase K: (§3) The enzymatic breakdown susceptibility was analyzed by adding proteinase K (3.4.21.64; Sigma Aldrich), subtilisin (3.4.21.62; Sigma Aldrich), and trypsin (3.4.21.4; Sigma Aldrich) to either colistin (at 3.4 mg/mL) or C3Ms at f+ = 0.50 (total concentration 5.0 mg/mL) at their suppliers’ recommended concentration/ratio for optimized breakdown (molar ratios of enzyme:colistin ≈ 1:130 for proteinase K, ≈ 1:70 for subtilisin and ≈ 1:180 for trypsin). We assessed the difference in susceptibility between noncomplexed colistin and C3Ms. Colistin solution was incubated with enzymes for 24 h at 37 °C, after which polymer solution (kept 24 h at 37 °C) was added while in the other case, premade C3Ms were incubated with enzymes for 24 h at 37 °C. These samples were analyzed using SAXS and modeled, including enzyme scattering (using the Debye form factor since the scattering was too small to use a prolate/oblate ellipsoid form factor, eq 8) to monitor the molecular weight of the complex coacervates after exposure to enzyme degradation.
Experimental for subtilisin: as §3
Experimental for trypsin: as §3

Consider colistin sulfate, for which, on subtilisin (enzyme:colistin ≈ 1:70, colistin 3.4 mg/mL digested then complexed with polymer (without C3M protection) or premade C3Ms 5.0 mg/mL digested (with C3M protection), SAXS fit), the “Mw of complex coacervates after subtilisin degradation” value stood at 0.042 MDa. Moreover, on subtilisin (versus untreated C3Ms), the “factor of reduction of Mw of complex coacervates by subtilisin” value is on record as “≈ 50”. Moreover, the “inhibition zone, result in words” value is given as “no inhibition zones could be observed” in data set [1], “not visibly affected” in data set [2], “grew back over the inhibition zones” in [4] and “immeasurable small inhibition zones” in the data set on A. vinelandii (DSM2290). The MIC50 with E. coli was 1.5 ± 0.1 mg/L. At proteinase K (enzyme:colistin ≈ 1:130, colistin 3.4 mg/mL digested then complexed with polymer (without C3M protection) or premade C3Ms 5.0 mg/mL digested (with C3M protection), SAXS fit), the “Mw of complex coacervates after proteinase K degradation” value stood at 0.13 MDa. Also, the “factor of reduction of average Mw of complex coacervates by proteinase K” value on proteinase K (versus untreated C3Ms) was “≈ 20”. For the same substance, in data set [3], the “size of inhibition zone (ΔR)” value is given as 1.9 ± 0.1 mm. Besides, the “LDH activity versus control” value in data set [5] (24, 48, 72 h, 0.7 mg/mL colistin) is “no significant differences”. For the same substance, the “caspase-3 level, fold change of control” value in data set [5] (day one (24 h), 0.7 mg/mL colistin (1.0 mg/mL total for C3Ms), mean of 3) is on record as “up to 3 fold”. Besides, the “LDH (necrosis), result in words” value in data set [6] is “caused necrosis (LDH)”. In data set [6], the “caspase-3 (apoptosis), result in words” value is listed as “apoptosis (caspase-3)”. In data set [7], the “caspase-3 level versus control” value is reported as “no significant difference”. For the same substance, the “LDH activity, fold change of control” value in [7] (mean of 3) worked out at 2 fold. In the data set with trypsin, the “breakdown by trypsin, result in words” value is on record as “ineffective in breaking down colistin”.
